For 22 compounds, T/C results are on record in PubChem BioAssay AID330 (DTP/NCI, 2004).

“And” between values parts separate entries of the source, which are not always exact repeats. Equal entries are not always repeated. Inconclusive results and toxic doses are left out.

This test relates to P388 leukemia ip, CD2F1 mice, survival T/C. Put plainly: NCI In Vivo Anticancer Drug Screen. Data for tumor model P388 Leukemia (intraperitoneal) in CD2F1 (CDF1) mice. The following applies: endpoint: median survival time, higher = longer survival. Put shortly:
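Mice carrying the transplanted tumor received test compound or vehicle. Survival was recorded in each group, and the value is the treated-group measurement divided by that of the vehicle-treated control group.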

The mark [1] stands for this setting: dose: 100.0 mg/kg/injection, schedule: Q01DX009 (ip), vehicle: Klucel (hydroxypropylcellulose) (HPC).
[2] abbreviates: dose: 200.0 mg/kg/injection, schedule: Q01DX009 (ip), vehicle: Klucel (hydroxypropylcellulose) (HPC).
Where [3] appears, read: dose: 50.0 mg/kg/injection, schedule: Q01DX005 (ip), vehicle: saline with Tween-80.
The mark [4] stands for this setting: dose: 100.0 mg/kg/injection, schedule: Q01DX005 (ip), vehicle: saline with Tween-80.
Setting [5] is: dose: 200.0 mg/kg/injection, schedule: Q01DX005 (ip), vehicle: saline with Tween-80.
Where [6] appears, read: dose: 50.0 mg/kg/injection, schedule: Q01DX005 (ip), vehicle: saline.
The mark [7] stands for this setting: dose: 100.0 mg/kg/injection, schedule: Q01DX005 (ip), vehicle: saline.

For `Nc1ncnc2c1ccn2C1OC(CO)C(O)C1O` (stereo not drawn), the T/C is, setting by setting: (dose: 0.44 mg/kg/injection, schedule: Q01DX001 (ip), vehicle: saline) 120 % of control; (dose: 0.5 mg/kg/injection, schedule: Q01DX009 (ip), vehicle: water) 113 % of control; (dose: 0.88 mg/kg/injection, schedule: Q01DX001 (ip), vehicle: saline) 110 % of control; (dose: 8.0 mg/kg/injection, schedule: Q01DX010 (sc), vehicle: saline) 105 % of control; (dose: 16.0 mg/kg/injection, schedule: Q01DX010 (sc), vehicle: saline) 110 % of control; (dose: 55.0 micrograms/kg/injection, schedule: Q07DX Z (ip), vehicle: saline) 90 % of control. Also, the T/C reads like this: (dose: 110.0 micrograms/kg/injection, schedule: Q07DX Z (ip), vehicle: saline) 105 % of control; (dose: 220.0 micrograms/kg/injection, schedule: Q07DX Z (ip), vehicle: saline) 105 % of control; (dose: 440.0 micrograms/kg/injection, schedule: Q07DX Z (ip), vehicle: saline) 105 % of control.
In the case of `COc1cccc([N+]([O-])=NC#N)c1`, the T/C was 105 % of control (dose: 12.5 mg/kg/injection, schedule: Q04DX003 (ip), vehicle: Klucel (hydroxypropylcellulose) (HPC)); 115 % of control (dose: 25.0 mg/kg/injection, schedule: Q04DX003 (ip), vehicle: Klucel (hydroxypropylcellulose) (HPC)); 107 % of control and 90 % of control (dose: 50.0 mg/kg/injection, schedule: Q04DX003 (ip), vehicle: Klucel (hydroxypropylcellulose) (HPC)).
With `O=C(Oc1ccc(Cl)cc1Cl)c1ccc([N+](=O)[O-])cc1`, the T/C under setting [1] was 96 % of control; the T/C under setting [2] was 87 % of control; the T/C (dose: 400.0 mg/kg/injection, schedule: Q01DX009 (ip), vehicle: Klucel (hydroxypropylcellulose) (HPC)) is 96 % of control.
On to `CCC(=O)NC(Cc1cccc(F)c1)C(=O)O` (stereo not drawn), for which the T/C is 112 % of control (dose: 6.25 mg/kg/injection, schedule: Q01DX009 (ip), vehicle: saline) and 102 % of control (dose: 12.5 mg/kg/injection, schedule: Q01DX009 (ip), vehicle: saline).
With `CCN1C(=O)Nc2ccc(Cl)cc2C1(O)c1ccccc1` (stereo not drawn), the T/C is, setting by setting: (dose: 25.0 mg/kg/injection, schedule: Q01DX009 (ip), vehicle: saline with Tween-80) 95 % of control; (dose: 50.0 mg/kg/injection, schedule: Q01DX009 (ip), vehicle: saline with Tween-80) 102 % of control; (dose: 100.0 mg/kg/injection, schedule: Q01DX009 (ip), vehicle: saline with Tween-80) 99 % of control.
`O=C(CCCC(=O)Nc1ccc2c(=O)c3ccccc3[nH]c2c1)Nc1ccc2c(=O)c3ccccc3[nH]c2c1`: the T/C under setting [3] is 98 % of control, the T/C under setting [4] is 104 % of control and the T/C under setting [5] is 100 % of control.
With `CCC1=C[C@H]2CN(CCc3c([nH]c4ccccc34)[C@@](OC(C)=O)(c3cc4c(cc3OC)N(C)[C@H]3[C@@](O)(C(=O)NCCSc5ccccc5)[C@H](O)[C@]5(CC)C=CCN6CC[C@]43[C@@H]65)C2)C1`, the T/C is 107 % of control (dose: 0.5 mg/kg/injection, schedule: Q01DX001 (ip), vehicle: water); 174 % of control (dose: 8.0 mg/kg/injection, schedule: Q01DX001 (ip), vehicle: water); 163 % of control and 184 % of control (dose: 16.0 mg/kg/injection, schedule: Q01DX001 (ip), vehicle: water).
On to `NC(=O)N/N=C1/CCC(OC(=O)c2ccccc2)CC1CC(=O)O` (stereo not drawn), for which the T/C is, setting by setting: under setting [3], 100 % of control; under setting [4], 100 % of control; under setting [5], 100 % of control.
Consider `O=C(O)c1cccc2c1Oc1c(cccc1C(=O)O)S2`, for which the T/C reads like this: under setting [3], 98 % of control; under setting [4], 107 % of control; under setting [5], 108 % of control.
`CCOC(=O)CC1(C)C(=O)CCCC1=O`: the T/C is 101 % of control (dose: 100.0 mg/kg/injection, schedule: Q04DX003 (ip), vehicle: saline); 100 % of control (dose: 200.0 mg/kg/injection, schedule: Q04DX003 (ip), vehicle: saline); 100 % of control (dose: 400.0 mg/kg/injection, schedule: Q04DX003 (ip), vehicle: saline).
On to `C=C/C=C\CN(C)Cc1ccccc1`, for which the T/C is, setting by setting: (dose: 12.5 mg/kg/injection, schedule: Q01DX005 (ip), vehicle: saline) 99 % of control; (dose: 25.0 mg/kg/injection, schedule: Q01DX005 (ip), vehicle: saline) 105 % of control; under setting [6], 106 % of control and 108 % of control; under setting [7], 101 % of control.
Take `Cc1ccc(S(C)(=N)=O)c(N)c1` (stereo not drawn): the T/C by setting is: (dose: 50.0 mg/kg/injection, schedule: Q01DX005 (ip), vehicle: acetone) 99 % of control; (dose: 100.0 mg/kg/injection, schedule: Q01DX005 (ip), vehicle: acetone) 99 % of control; (dose: 200.0 mg/kg/injection, schedule: Q01DX005 (ip), vehicle: acetone) 100 % of control.
As for `CN1C(=O)C2(CC2C(=O)c2ccc(Cl)cc2)c2ccccc21` (stereo not drawn), the T/C runs as follows: (dose: 2.5 mg/kg/injection, schedule: Q04DX002 (ip), vehicle: saline with Tween-80) 108 % of control; (dose: 5.0 mg/kg/injection, schedule: Q04DX002 (ip), vehicle: saline with Tween-80) 100 % of control; (dose: 10.0 mg/kg/injection, schedule: Q04DX002 (ip), vehicle: saline with Tween-80) 99 % of control.
Take `CN(C)c1ccc(C=Nc2cccc(Cl)c2)cc1`: the T/C by setting is: (dose: 50.0 mg/kg/injection, schedule: Q01DX009 (ip), vehicle: Klucel (hydroxypropylcellulose) (HPC)) 108 % of control; under setting [1], 98 % of control; under setting [2], 103 % of control.
Consider `COc1cc2cc(c1Cl)N(C)C(=O)CC(OC(=O)C(C)NC(=O)C(C)C)C1(C)OC1C(C)C1CC(O)(NC(=O)O1)C(OC)/C=C/C=C(C)C2OC` (stereo not drawn), for which, where the note is “dose: 32.0 micrograms/kg/injection, schedule: Q01DX009 (ip), vehicle: distilled water + alcohol”, the T/C is 159 % of control.
As to `O=S(=O)(O)C1=CC(=N/Br)/C=CC/1=N\Br`, the T/C runs as follows: under setting [6], 118 % of control and 119 % of control; under setting [7], 115 % of control and 121 % of control; (dose: 200.0 mg/kg/injection, schedule: Q01DX005 (ip), vehicle: saline) 118 % of control and 121 % of control.
`C=CCn1c(=O)n(CC=C)c(=O)n(CCOC(=O)COc2ccc(Cl)cc2Cl)c1=O`: the T/C is 108 % of control (dose: 50.0 mg/kg/injection, schedule: Q01DX009 (ip), vehicle: saline); 112 % of control (dose: 100.0 mg/kg/injection, schedule: Q01DX009 (ip), vehicle: saline); 94 % of control (dose: 200.0 mg/kg/injection, schedule: Q01DX009 (ip), vehicle: saline).
As to `CC(C)(C)C1CC=CCC1` (stereo not drawn), the T/C was 109 % of control (dose: 50.0 mg/kg/injection, schedule: Q01DX009 (ip), vehicle: saline sonified) and 100 % of control (dose: 100.0 mg/kg/injection, schedule: Q01DX009 (ip), vehicle: saline sonified).
For the compound `O=C1C2=C(OCCO2)C(=O)C2=C1OCCO2`, the T/C was 99 % of control (dose: 100.0 mg/kg/injection, schedule: Q04DX002 (ip), vehicle: saline with Tween-80); 111 % of control (dose: 200.0 mg/kg/injection, schedule: Q04DX002 (ip), vehicle: saline with Tween-80); 106 % of control (dose: 400.0 mg/kg/injection, schedule: Q04DX002 (ip), vehicle: saline with Tween-80).
As for `CN=C(N)N/N=C(\c1ccccc1)c1ccc(Cl)cc1`, the T/C (dose: 6.25 mg/kg/injection, schedule: Q04DX002 (ip), vehicle: saline with Tween-80) was 102 % of control; the T/C (dose: 12.5 mg/kg/injection, schedule: Q04DX002 (ip), vehicle: saline with Tween-80) was 109 % of control; the T/C (dose: 25.0 mg/kg/injection, schedule: Q04DX002 (ip), vehicle: saline with Tween-80) was 153 % of control.
Turning to `Cc1cc2c(cc1C)C(=O)C(CN1CCCCC1)CO2` (stereo not drawn), the T/C (dose: 100.0 mg/kg/injection, schedule: Q01DX001 (ip), vehicle: saline) was 107 % of control and the T/C (dose: 200.0 mg/kg/injection, schedule: Q01DX001 (ip), vehicle: saline) is 104 % of control.
On to `CN(C)c1ccc2ncc(C(N)=O)c(N)c2c1`, for which the T/C runs as follows: (dose: 7.5 mg/kg/injection, schedule: Q01DX005 (ip), vehicle: Klucel (hydroxypropylcellulose) (HPC)) 91 % of control; (dose: 15.0 mg/kg/injection, schedule: Q01DX005 (ip), vehicle: Klucel (hydroxypropylcellulose) (HPC)) 99 % of control; (dose: 30.0 mg/kg/injection, schedule: Q01DX005 (ip), vehicle: Klucel (hydroxypropylcellulose) (HPC)) 97 % of control.
